{
  "source": "patent US9873696B2",
  "about": "“Neprilysin inhibitors” (THERAVANCE BIOPHARMA R&D IP, LLC, priority 2010, dated 2018)",
  "data": [
    {"biological_target": "T1, human NEP (Homo sapiens, UniProt P08473)", "T1 construct": "purchased R&D Systems, Minneapolis, Minn; 1182-ZN", "T1 sequence (P08473 whole entry)": "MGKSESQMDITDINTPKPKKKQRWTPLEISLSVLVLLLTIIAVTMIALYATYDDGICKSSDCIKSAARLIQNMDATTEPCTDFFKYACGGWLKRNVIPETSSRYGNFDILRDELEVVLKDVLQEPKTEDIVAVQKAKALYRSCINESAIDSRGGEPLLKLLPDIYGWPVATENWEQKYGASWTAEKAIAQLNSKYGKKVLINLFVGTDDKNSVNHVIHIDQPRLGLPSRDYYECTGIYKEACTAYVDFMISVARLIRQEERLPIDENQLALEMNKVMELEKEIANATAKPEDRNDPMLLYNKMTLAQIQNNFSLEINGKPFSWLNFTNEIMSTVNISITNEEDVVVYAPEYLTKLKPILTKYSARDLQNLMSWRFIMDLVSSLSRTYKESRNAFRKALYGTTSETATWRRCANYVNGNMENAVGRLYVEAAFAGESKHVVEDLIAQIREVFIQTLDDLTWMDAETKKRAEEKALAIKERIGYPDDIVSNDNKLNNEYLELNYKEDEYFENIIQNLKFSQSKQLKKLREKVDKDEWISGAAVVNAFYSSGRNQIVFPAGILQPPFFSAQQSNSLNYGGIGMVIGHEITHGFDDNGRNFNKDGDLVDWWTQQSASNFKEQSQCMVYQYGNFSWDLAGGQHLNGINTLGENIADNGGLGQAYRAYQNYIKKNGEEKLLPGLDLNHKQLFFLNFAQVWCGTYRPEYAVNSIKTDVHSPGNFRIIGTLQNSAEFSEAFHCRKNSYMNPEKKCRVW", "experiment": "In vitro enzyme inhibition assay at human NEP (Assay 1)", "type": "biochemical", "conditions": "recombinant enzyme, fluorogenic peptide substrate, 37° C.", "outline": "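Recombinant enzyme preincubated with compound 30 min at 37 °C, then 10 μM Mca-D-Arg-Arg-Leu-Dap-(Dnp)-OH added in 50 mM HEPES pH 7.5, 100 mM NaCl, 0.01% Tween-20, 10 μM ZnSO4; stopped after 20 min with acetic acid. Fluorescence read at 320/405 nm; Ki from nonlinear fit of v=v0/[1+(I/K′)], reported as pKi.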", "units": {"Ki": "nM"}, "values": [
      {"smiles": "O=C(NN(Cc1ccc(-c2ccccc2)cc1F)C[C@@H](O)C(=O)O)c1cc(O)no1", "note": "[Example 10-1, (R)-3-[N-(3-Fluoro-biphenyl-4-ylmethyl)-N′-(3-hydroxy-isoxazole-5-carbonyl)-hydrazino]-2-hydroxy-propionic acid]", "Ki": "1.26 to 10"},
      {"smiles": "N#Cc1cc(-c2cccc(Cl)c2)ccc1CN(C[C@@H](O)C(=O)O)NC(=O)c1cc(O)no1", "note": "[Example 10-2, (R)-3-[N-(3′-Chloro-3-cyano-biphenyl-4-ylmethyl)-N′-(3-hydroxy-isoxazole-5-carbonyl)-hydrazino]-2-hydroxy-propionic acid]", "Ki": "1.26 to 10"},
      {"smiles": "O=C(NN(Cc1ccc(-c2cccc(Cl)c2)c(Cl)c1)C[C@@H](O)C(=O)O)c1cc(O)no1", "note": "[Example 10-3, (R)-3-[N-(2,3′-Dichloro-biphenyl-4-ylmethyl)-N′-(3-hydroxy-isoxazole-5-carbonyl)-hydrazino]-2-hydroxy-propionic acid]", "Ki": "≤ 1"},
      {"smiles": "O=C(NN(Cc1ccc(-c2cccc(Cl)c2)c(F)c1)C[C@@H](O)C(=O)O)c1cc(O)no1", "note": "[Example 10-6, (R)-3-[N-(3′-Chloro-2-fluoro-biphenyl-4-ylmethyl)-N′-(3-hydroxy-isoxazole-5-carbonyl)-hydrazino]-2-hydroxy-propionic acid]", "Ki": "≤ 1"},
      {"smiles": "O=C(NN(Cc1ccc(-c2cc(Cl)ccc2F)cc1Cl)C[C@@H](O)C(=O)O)c1cc(O)no1", "note": "[Example 10-7, (R)-3-[N-(3,5′-Dichloro-2′-fluoro-biphenyl-4-ylmethyl)-N′-(3-hydroxy-isoxazole-5-carbonyl)-hydrazino]-2-hydroxy-propionic acid]", "Ki": "≤ 1"},
      {"smiles": "O=C(NN(Cc1ccc(-c2cccc(Cl)c2)cc1F)C[C@@H](O)C(=O)O)c1nnn[nH]1", "note": "[Example 10-8, (R)-3-[N-(3′-Chloro-3-fluoro-biphenyl-4-ylmethyl)-N′-(1H-tetrazole-5-carbonyl)-hydrazino]-2-hydroxy-propionic acid]", "Ki": "1.26 to 10"},
      {"smiles": "O=C(NN(Cc1ccc(-c2cccc(Cl)c2)cc1F)C[C@@H](O)C(=O)O)c1cn(O)nn1", "note": "[Example 10-9, (R)-3-[N-(3′-Chloro-3-fluoro-biphenyl-4-ylmethyl)-N′-(1-hydroxy-1H-[1,2,3]triazole-4-carbonyl)-hydrazino]-2-hydroxy-propionic acid]", "Ki": "≤ 1"},
      {"smiles": "O=C(NN(Cc1ccc(-c2cc(Cl)ccc2F)cc1Cl)C[C@@H](O)C(=O)O)c1c[nH]nn1", "note": "[Example 10-10, (R)-3-[N-(3,5′-Dichloro-2′-fluoro-biphenyl-4-ylmethyl)-N′-(1H-[1,2,3]triazole-4-carbonyl)-hydrazino]-2-hydroxy-propionic acid]", "Ki": "≤ 1"},
      {"smiles": "O=C(NN(Cc1ccc(-c2cccc(Cl)c2)cc1Cl)C[C@@H](O)C(=O)O)c1c[nH]nn1", "note": "[Example 10-11, (R)-3-[N-(3,3′-Dichloro-biphenyl-4-ylmethyl)-N′-(1H-[1,2,3]triazole-4-carbonyl)-hydrazino]-2-hydroxy-propionic acid]", "Ki": "≤ 1"}
    ]}
  ]
}
